How the values were obtained:
[1] = test system: Phosphatidylinositol 4,5-bisphosphate 3-kinase catalytic subunit alpha isoform (Homo sapiens), P42336 [I800L]; details: Compound concentration 1000.0 nM
[2] = molecular target: Beta-adrenergic receptor kinase 1 (Homo sapiens) (UniProt P25098); details: Compound concentration 1000.0 nM
[3] = test system: Tyrosine-protein kinase ABL1 (Homo sapiens), P00519 [F317I]; details: Compound concentration 1000.0 nM
[4] = molecular target: Serine/threonine-protein kinase 16 (Homo sapiens) (UniProt O75716); details: Compound concentration 1000.0 nM
[5] = molecular target: Ribosomal protein S6 kinase alpha-2 (Homo sapiens) (UniProt Q15349); details: Compound concentration 1000.0 nM
[6] = molecular target: Serine/threonine-protein kinase 25 (Homo sapiens) (UniProt O00506); details: Compound concentration 1000.0 nM
[7] = test system: Mast/stem cell growth factor receptor Kit (Homo sapiens), P10721 [V559D,T670I]; details: Compound concentration 1000.0 nM
[8] = test system: Hepatocyte growth factor receptor (Homo sapiens), P08581 [M1250T]; details: Compound concentration 1000.0 nM
[9] = molecular target: Interleukin-1 receptor-associated kinase 4 (Homo sapiens) (UniProt Q9NWZ3); details: Compound concentration 1000.0 nM
[10] = molecular target: G protein-coupled receptor kinase 3 (Homo sapiens) (UniProt P35626); details: Compound concentration 1000.0 nM
[11] = molecular target: Ribosomal protein S6 kinase alpha-4 (Homo sapiens) (UniProt O75676); details: Compound concentration 1000.0 nM
[12] = molecular target: Serine/threonine-protein kinase OSR1 (Homo sapiens) (UniProt O95747); details: Compound concentration 1000.0 nM
[13] = molecular target: Mitogen-activated protein kinase kinase kinase 1 (Homo sapiens) (UniProt Q13233); details: Compound concentration 1000.0 nM
[14] = molecular target: 5-hydroxytryptamine receptor 2C (Homo sapiens) (UniProt P28335); details: Compound concentration 10.0 uM
[15] = molecular target: RAC-gamma serine/threonine-protein kinase (Homo sapiens) (UniProt Q9Y243); details: Compound concentration 1000.0 nM
[16] = molecular target: Protein-tyrosine kinase 6 (Homo sapiens) (UniProt Q13882); details: Compound concentration 1000.0 nM
[17] = molecular target: Non-receptor tyrosine-protein kinase TNK1 (Homo sapiens) (UniProt Q13470); details: Compound concentration 1000.0 nM
[18] = molecular target: Sodium-dependent noradrenaline transporter (Homo sapiens) (UniProt P23975); details: Compound concentration 10.0 uM
[19] = molecular target: GABA-A receptor; anion channel (Rattus norvegicus) (UniProt O09028+P15431+P18506+P18508+P19969+P20236+P23574+P23576+P28471+P28473+P30191+P62813+P63079+P63138+Q91ZM7+Q9ES14); details: Compound concentration 10.0 uM
[20] = molecular target: Protein-tyrosine kinase 2-beta (Homo sapiens) (UniProt Q14289); details: Compound concentration 1000.0 nM
[21] = molecular target: Serine/threonine-protein kinase D3 (Homo sapiens) (UniProt O94806); details: Compound concentration 1000.0 nM
[22] = molecular target: Casein kinase I isoform alpha (Homo sapiens) (UniProt P48729); details: Compound concentration 1000.0 nM
[23] = molecular target: Macrophage colony-stimulating factor 1 receptor (Homo sapiens) (UniProt P07333); details: Compound concentration 1000.0 nM
[24] = molecular target: Histamine H1 receptor (Homo sapiens) (UniProt P35367); details: Compound concentration 10.0 uM
[25] = molecular target: Mitogen-activated protein kinase kinase kinase 3 (Homo sapiens) (UniProt Q99759); details: Compound concentration 1000.0 nM
[26] = test system: Tyrosine-protein kinase ABL1 (Homo sapiens), P00519 [F317L]; details: Compound concentration 1000.0 nM
[27] = molecular target: Non-receptor tyrosine-protein kinase TYK2 (Homo sapiens) (UniProt P29597); details: Compound concentration 1000.0 nM
[28] = molecular target: Vascular endothelial growth factor receptor 1 (Homo sapiens) (UniProt P17948); details: Compound concentration 1000.0 nM
[29] = molecular target: Serine/threonine-protein kinase 26 (Homo sapiens) (UniProt Q9P289); details: Compound concentration 1000.0 nM
[30] = molecular target: Serine/threonine-protein kinase DCLK2 (Homo sapiens) (UniProt Q8N568); details: Compound concentration 1000.0 nM
[31] = molecular target: Tyrosine-protein kinase FRK (Homo sapiens) (UniProt P42685); details: Compound concentration 1000.0 nM
[32] = molecular target: Vascular endothelial growth factor receptor 3 (Homo sapiens) (UniProt P35916); details: Compound concentration 1000.0 nM
[33] = molecular target: Dual specificity tyrosine-phosphorylation-regulated kinase 1B (Homo sapiens) (UniProt Q9Y463); details: Compound concentration 1000.0 nM
[34] = molecular target: Rhodopsin kinase GRK1 (Homo sapiens) (UniProt Q15835); details: Compound concentration 1000.0 nM
[35] = test system: Tyrosine-protein kinase ABL1 (Homo sapiens), P00519 [Q252H]; details: Compound concentration 1000.0 nM
[36] = molecular target: Platelet-derived growth factor receptor alpha (Homo sapiens) (UniProt P16234); details: Compound concentration 1000.0 nM
[37] = molecular target: Dual specificity testis-specific protein kinase 1 (Homo sapiens) (UniProt Q15569); details: Compound concentration 1000.0 nM
[38] = molecular target: Discoidin domain-containing receptor 2 (Homo sapiens) (UniProt Q16832); details: Compound concentration 1000.0 nM
[39] = molecular target: Cyclin-dependent kinase 4 (Homo sapiens) (UniProt P11802); details: Compound concentration 1000.0 nM
[40] = molecular target: Testis-specific serine/threonine-protein kinase 1 (Homo sapiens) (UniProt Q9BXA7); details: Compound concentration 1000.0 nM
[41] = molecular target: Serine/threonine-protein kinase PknB (Mycobacterium tuberculosis) (UniProt P9WI81); details: Compound concentration 1000.0 nM
[42] = molecular target: TRAF2 and NCK-interacting protein kinase (Homo sapiens) (UniProt Q9UKE5); details: Compound concentration 1000.0 nM
[43] = molecular target: cGMP-dependent protein kinase 1 (Homo sapiens) (UniProt Q13976); details: Compound concentration 1000.0 nM
[44] = molecular target: Mitogen-activated protein kinase kinase kinase kinase 5 (Homo sapiens) (UniProt Q9Y4K4); details: Compound concentration 1000.0 nM

Mitogen-activated protein kinase kinase kinase 1 (Homo sapiens), sequence (Q13233 whole entry): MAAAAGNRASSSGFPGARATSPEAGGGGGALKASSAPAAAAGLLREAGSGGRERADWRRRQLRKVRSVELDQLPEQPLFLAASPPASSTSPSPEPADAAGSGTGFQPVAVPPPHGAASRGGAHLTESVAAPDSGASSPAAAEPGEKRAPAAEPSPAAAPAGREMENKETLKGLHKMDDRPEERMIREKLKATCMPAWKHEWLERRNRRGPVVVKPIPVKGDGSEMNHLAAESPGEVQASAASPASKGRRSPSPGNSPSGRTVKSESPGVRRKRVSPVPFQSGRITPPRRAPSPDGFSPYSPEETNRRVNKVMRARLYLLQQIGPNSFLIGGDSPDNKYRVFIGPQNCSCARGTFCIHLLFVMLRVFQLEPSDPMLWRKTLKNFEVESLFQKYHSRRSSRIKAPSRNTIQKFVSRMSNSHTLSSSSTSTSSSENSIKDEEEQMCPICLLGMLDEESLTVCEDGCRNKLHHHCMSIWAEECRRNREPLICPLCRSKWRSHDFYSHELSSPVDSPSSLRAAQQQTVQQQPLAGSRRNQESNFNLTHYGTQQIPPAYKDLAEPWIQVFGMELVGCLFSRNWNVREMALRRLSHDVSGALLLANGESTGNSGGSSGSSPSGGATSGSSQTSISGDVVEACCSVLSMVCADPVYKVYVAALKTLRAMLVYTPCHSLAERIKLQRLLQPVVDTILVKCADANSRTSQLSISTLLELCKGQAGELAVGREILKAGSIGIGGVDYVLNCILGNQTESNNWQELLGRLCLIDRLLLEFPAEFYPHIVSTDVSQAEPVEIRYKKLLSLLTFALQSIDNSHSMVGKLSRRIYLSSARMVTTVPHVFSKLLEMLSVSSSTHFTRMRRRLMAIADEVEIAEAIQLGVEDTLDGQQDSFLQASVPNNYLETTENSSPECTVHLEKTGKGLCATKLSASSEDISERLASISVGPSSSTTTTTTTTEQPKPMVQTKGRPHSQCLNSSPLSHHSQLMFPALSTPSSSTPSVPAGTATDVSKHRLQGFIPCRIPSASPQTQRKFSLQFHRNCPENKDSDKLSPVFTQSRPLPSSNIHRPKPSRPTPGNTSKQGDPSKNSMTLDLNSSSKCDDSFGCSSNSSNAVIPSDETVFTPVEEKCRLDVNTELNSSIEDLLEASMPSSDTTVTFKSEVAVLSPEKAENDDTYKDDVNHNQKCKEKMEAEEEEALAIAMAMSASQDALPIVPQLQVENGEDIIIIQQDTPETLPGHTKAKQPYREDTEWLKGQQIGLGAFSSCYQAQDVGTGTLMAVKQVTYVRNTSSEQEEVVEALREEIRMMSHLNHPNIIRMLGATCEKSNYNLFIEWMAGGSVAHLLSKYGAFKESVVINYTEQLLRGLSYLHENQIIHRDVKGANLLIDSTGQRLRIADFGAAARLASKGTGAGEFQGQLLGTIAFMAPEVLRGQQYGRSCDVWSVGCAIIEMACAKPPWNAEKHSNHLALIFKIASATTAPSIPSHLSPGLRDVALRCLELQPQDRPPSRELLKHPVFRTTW
Beta-adrenergic receptor kinase 1 (Homo sapiens), sequence (P25098 whole entry): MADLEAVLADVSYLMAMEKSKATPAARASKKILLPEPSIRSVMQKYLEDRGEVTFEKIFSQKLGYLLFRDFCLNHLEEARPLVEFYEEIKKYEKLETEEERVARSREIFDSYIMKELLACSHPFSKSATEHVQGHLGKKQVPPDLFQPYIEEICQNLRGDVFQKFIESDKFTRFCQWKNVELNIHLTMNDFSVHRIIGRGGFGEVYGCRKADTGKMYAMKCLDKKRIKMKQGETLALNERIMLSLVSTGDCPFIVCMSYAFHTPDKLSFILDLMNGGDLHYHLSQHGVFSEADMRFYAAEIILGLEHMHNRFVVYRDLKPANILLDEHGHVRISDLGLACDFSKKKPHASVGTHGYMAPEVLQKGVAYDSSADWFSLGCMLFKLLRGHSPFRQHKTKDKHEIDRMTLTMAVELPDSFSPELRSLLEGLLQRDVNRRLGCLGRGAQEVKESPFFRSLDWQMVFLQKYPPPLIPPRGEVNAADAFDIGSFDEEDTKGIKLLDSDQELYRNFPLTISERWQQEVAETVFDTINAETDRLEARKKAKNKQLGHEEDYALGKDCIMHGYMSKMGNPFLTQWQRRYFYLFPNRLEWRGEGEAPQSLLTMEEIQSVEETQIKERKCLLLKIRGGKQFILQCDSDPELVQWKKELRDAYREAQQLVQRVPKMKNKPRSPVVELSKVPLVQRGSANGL
Testis-specific serine/threonine-protein kinase 1 (Homo sapiens), sequence (Q9BXA7 whole entry): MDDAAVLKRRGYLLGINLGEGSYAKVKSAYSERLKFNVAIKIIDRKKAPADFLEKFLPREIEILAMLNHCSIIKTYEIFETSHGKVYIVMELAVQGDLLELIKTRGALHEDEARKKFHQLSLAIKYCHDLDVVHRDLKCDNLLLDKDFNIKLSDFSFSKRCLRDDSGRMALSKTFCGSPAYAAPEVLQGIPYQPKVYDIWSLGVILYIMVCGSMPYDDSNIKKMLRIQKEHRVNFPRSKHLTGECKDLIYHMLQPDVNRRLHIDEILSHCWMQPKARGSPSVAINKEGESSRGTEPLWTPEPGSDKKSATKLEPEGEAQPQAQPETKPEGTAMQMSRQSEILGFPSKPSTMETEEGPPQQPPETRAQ
5-hydroxytryptamine receptor 2C (Homo sapiens), sequence (P28335 whole entry): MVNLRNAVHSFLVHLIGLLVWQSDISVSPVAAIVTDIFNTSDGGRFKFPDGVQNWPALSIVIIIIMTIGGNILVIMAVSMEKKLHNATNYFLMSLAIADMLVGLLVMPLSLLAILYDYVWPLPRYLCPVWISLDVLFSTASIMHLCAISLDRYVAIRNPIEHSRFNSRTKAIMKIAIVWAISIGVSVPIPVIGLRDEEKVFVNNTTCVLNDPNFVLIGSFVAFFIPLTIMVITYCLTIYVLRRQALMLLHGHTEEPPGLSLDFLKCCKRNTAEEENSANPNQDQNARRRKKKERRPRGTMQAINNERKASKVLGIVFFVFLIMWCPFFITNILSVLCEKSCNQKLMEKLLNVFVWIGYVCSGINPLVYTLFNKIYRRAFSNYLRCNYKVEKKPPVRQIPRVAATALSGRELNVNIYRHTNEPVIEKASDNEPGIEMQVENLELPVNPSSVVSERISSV
RAC-gamma serine/threonine-protein kinase (Homo sapiens), sequence (Q9Y243 whole entry): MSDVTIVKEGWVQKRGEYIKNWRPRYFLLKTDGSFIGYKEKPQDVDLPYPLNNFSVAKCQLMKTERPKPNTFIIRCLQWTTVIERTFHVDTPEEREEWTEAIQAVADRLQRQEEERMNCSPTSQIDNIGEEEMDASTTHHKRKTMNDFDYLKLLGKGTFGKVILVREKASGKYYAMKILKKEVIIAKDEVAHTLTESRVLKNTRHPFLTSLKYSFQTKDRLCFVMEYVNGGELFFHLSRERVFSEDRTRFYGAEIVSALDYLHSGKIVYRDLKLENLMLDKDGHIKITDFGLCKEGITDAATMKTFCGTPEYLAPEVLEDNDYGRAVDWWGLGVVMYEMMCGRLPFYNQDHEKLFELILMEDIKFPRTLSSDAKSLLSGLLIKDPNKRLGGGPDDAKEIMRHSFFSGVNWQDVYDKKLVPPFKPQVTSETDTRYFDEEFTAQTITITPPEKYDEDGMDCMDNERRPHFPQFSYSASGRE
Serine/threonine-protein kinase 26 (Homo sapiens), sequence (Q9P289 2-416 limits assumed): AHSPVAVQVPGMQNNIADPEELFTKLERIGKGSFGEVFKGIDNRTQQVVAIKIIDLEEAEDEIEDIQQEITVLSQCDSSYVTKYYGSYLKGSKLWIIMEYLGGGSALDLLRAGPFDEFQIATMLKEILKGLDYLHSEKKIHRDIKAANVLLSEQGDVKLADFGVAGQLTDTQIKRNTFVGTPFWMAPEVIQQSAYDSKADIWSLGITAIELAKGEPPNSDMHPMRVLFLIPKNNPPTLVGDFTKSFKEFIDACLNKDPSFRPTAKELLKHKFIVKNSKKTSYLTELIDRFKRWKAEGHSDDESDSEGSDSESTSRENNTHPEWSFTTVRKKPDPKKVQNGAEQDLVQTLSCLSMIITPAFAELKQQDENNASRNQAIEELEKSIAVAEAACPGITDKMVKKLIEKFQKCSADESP
Discoidin domain-containing receptor 2 (Homo sapiens), sequence (Q16832 whole entry, the tested form may be a part): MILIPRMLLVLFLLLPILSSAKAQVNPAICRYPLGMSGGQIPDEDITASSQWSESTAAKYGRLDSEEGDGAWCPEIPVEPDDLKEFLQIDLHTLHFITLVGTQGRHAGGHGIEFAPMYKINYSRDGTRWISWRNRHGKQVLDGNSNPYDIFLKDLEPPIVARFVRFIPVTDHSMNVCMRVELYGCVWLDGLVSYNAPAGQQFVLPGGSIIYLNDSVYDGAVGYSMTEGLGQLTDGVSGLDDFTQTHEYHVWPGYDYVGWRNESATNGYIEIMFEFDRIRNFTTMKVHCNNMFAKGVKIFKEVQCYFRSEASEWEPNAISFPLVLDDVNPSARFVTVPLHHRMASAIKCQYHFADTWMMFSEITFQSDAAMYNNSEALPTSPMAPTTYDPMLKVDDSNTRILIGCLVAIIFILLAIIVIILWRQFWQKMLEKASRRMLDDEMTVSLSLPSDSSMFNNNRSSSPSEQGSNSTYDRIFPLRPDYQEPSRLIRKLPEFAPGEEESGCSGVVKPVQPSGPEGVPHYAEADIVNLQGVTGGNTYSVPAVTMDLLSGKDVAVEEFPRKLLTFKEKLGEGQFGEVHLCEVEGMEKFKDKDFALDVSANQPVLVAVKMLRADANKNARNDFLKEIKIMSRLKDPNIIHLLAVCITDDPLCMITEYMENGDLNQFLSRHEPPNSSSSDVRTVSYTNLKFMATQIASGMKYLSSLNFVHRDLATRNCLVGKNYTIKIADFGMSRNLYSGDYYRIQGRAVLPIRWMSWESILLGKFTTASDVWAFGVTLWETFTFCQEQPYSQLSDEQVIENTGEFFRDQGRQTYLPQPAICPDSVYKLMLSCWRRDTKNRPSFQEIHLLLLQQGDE

Compound: CC(=O)c1c(NS(C)(=O)=O)c2cc(-c3ccc(Cl)cc3)c(-c3ccc(Cl)cc3Cl)nc2n(C)c1=O [MRL-CB1-NC]
- residual activity [1]: 64%
- residual activity [2]: 74%
- residual activity [3]: 76%
- residual activity [4]: 100%
- residual activity [5]: 100%
- residual activity [6]: 100%
- residual activity [7]: 100%
- residual activity [8]: 90%
- residual activity [9]: 95%
- residual activity [10]: 100%
- residual activity [11]: 87%
- residual activity [12]: 79%
- residual activity [13]: 94%
- inhibition [14]: 81.8%
- residual activity [15]: 91%
- residual activity [16]: 100%
- residual activity [17]: 100%
- inhibition [18]: 20.2%
- inhibition [19]: 60.9%
- residual activity [20]: 100%
- residual activity [21]: 100%
- residual activity [22]: 100%
- residual activity [23]: 100%
- inhibition [24]: 18.8%
- residual activity [25]: 100%
- residual activity [26]: 89%
- residual activity [27]: 94%
- residual activity [28]: 100%
- residual activity [29]: 84%
- residual activity [30]: 96%
- residual activity [31]: 100%
- residual activity [32]: 100%
- residual activity [33]: 100%
- residual activity [34]: 84%
- residual activity [35]: 76%
- residual activity [36]: 88%
- residual activity [37]: 100%
- residual activity [38]: 96%
- residual activity [39]: 63%
- residual activity [40]: 100%
- residual activity [41]: 83%
- residual activity [42]: 93%
- residual activity [43]: 75%
- residual activity [44]: 100%

Compound: CC(=O)Nc1c(C(C)=O)c(=O)n(C)c2nc(-c3ccc(Cl)cc3Cl)c(-c3ccc(Cl)cc3)cc12 [NAPHTHYRIDINONE]
- residual activity [1]: 58%
- residual activity [2]: 84%
- residual activity [3]: 77%
- residual activity [4]: 100%
- residual activity [5]: 100%
- residual activity [6]: 100%
- residual activity [7]: 100%
- residual activity [8]: 100%
- residual activity [9]: 100%
- residual activity [10]: 99%
- residual activity [11]: 100%
- residual activity [12]: 93%
- residual activity [13]: 100%
- inhibition [14]: 17.5%
- residual activity [15]: 100%
- residual activity [16]: 100%
- residual activity [17]: 100%
- inhibition [18]: 15.5%
- inhibition [19]: 30.2%
- residual activity [20]: 100%
- residual activity [21]: 100%
- residual activity [22]: 100%
- residual activity [23]: 100%
- inhibition [24]: -1.39%
- residual activity [25]: 100%
- residual activity [26]: 100%
- residual activity [27]: 100%
- residual activity [28]: 100%
- residual activity [29]: 87%
- residual activity [30]: 100%
- residual activity [31]: 100%
- residual activity [32]: 100%
- residual activity [33]: 35%
- residual activity [34]: 78%
- residual activity [35]: 72%
- residual activity [36]: 100%
- residual activity [37]: 100%
- residual activity [38]: 100%
- residual activity [39]: 87%
- residual activity [40]: 100%
- residual activity [41]: 100%
- residual activity [42]: 100%
- residual activity [43]: 100%
- residual activity [44]: 100%
